From patent publication US8802054B2, “Method for characterizing the oxidative stress protective capacity of an antioxidative substance” (PCR Technology Holdings, LC, priority 2005, dated 2014)

How the values were obtained:
[1] = Microsome pro-oxidative system (NADPH/ADP/Fe3+) measuring secondary oxidation by-products (MDA equivalents, TBARS); assay type: biochemical, male Wistar rats; settings: 100 μmol antioxidant; normalized to best performer = 20 points
Protocol: Test 4: Microsome Pro-Oxidative System measuring Secondary Oxidation By-Products
In this test, an assessment of antioxidative ability to protect microsomal membrane stressed with NADPH/ADP/Fe^3+-oxidative system measuring secondary oxidative by-products (Malondialdehyde-MDA equivalents) was performed utilizing the Thiobarbituric Acid Reactive Substances (TBARS) method. […] Therefore the pro-oxidative NADPH/ADP/Fe^3+-microsome system was used as an in vitro model system more closely resembling natural cellular biological systems.
Livers were obtained from male Wistar rats weighing between 250 and 400 g. Tissue was homogenized in 50 mmol/L N-2-Hydroxyethylpiperazine-N-2-Ethanesulfonic Acid (HEPES), 250 mmol/L sucrose buffer, pH 7.4, containing 150 mmol/L Potassium Chloride (KCl) and 500 μmol/L EDTA using a kinematica polytron PT3000 (Brinkmann Instruments, Westbury, N.Y.) homogenizer. Microsomal vesicles were isolated by removal of the nuclear fraction at 8,000×g for 10 min at 4° C. and removal of the mitochondrial fraction at 18,000×g for 10 min at 4° C. using a Beckman L8-55 ultracentrifuge and a 50Ti-13 rotor. The microsomal fraction was sedimented at 105,000×g for 60 min at 4° C. The pellet was washed once in 50 mmol/L HEPES and 150 mmol/L KCl, pH7.4, and collected again at 105,000×g for 30 min. The resulting microsomal pellet was resuspended in HEPES/KCl, pH7.4, by careful sonication in ice and stored in portions (10 mg protein/ml) at −80° C. until use.
The microsomal preparations were incubated in the presence of the pro-oxidant system NADPH/ADP/Fe^3+, consisting of 0.20 mmol/L NADPH, 50 mmol/L ADP, and 0.25 mmol/L FeCl3 in HEPES/KCl buffer (150 mmol/L KCl, 50 mmol/L HEPES) with and without the putative antioxidant substances. Oxidation of 1-ml aliquots containing 1 mg of protein was started at 37° C. by the addition of NADPH and was stopped with EDTA (10 mmol/L) after the times indicated in the figure legends. Control incubations without the pro-oxidant system were performed at 37° C. in the presence of EDTA. All Antioxidants were dissolved in water or ethanol and added to the incubations at equivalent 100 μmol concentrations.
Microsomal preparations (500 μl) were mixed with 1 ml of thiobarbituric acid (0.67 g/100 ml, 0.05 mol/L Sodium Hydroxide-NaOH). After the addition of trichloroacetic acid (50% w/v), the samples were heated to 90° C. for 30 min. After cooling and extraction of the samples with 1 ml of butanol, the absorbance of the butanol phase was determined spectrophotometrically at 532 nm. For quantification, an external standard curve was prepared using 1,1,3,3-tetraethoxypropane, which yields MDA.

human skin = test: UVB irradiation of human skin measuring damage by formation of sunburn cells (sunburn cell assay); assay type: in vivo; settings: for reduction in SBCs: 0.5% w/w in ethanol/water, topical once a day for two weeks, 1.5 MED UVB; for Sun Burn Cell Assay score: normalized to best performer = 20 points
Excerpt: Test 1: UVB Irradiation of Human Skin Measuring Damage by Formation of Sunburn Cells (SBC)
Exposure to UV radiation can cause damage of epidermal cells, resulting in the formation of sunburn cells. Since sunburn cells can be counted, their formation provides a relatively sensitive and quantitative measure of the extent of UV radiation damage to the epidermis.
All applications were made to a 5×10 cm area site over the mid-back region once a day for two weeks. Each putative antioxidant was applied to five (n=5) different healthy adult volunteers between the ages of 18 and 60. All Antioxidants were dissolved in ethanol/water at 0.5% w/w concentrations. Additionally, one test site was left untreated and served as a control. Approximately ten minutes after the last application, test sites were irradiated to 1.5 MED (Minimal Erythema Dose) of UVB light, a shave biopsy taken and prepared histologically, and the number of sun burn cells (SBC) evaluated microscopically per High Power Field.
The light source used was a 150 watt xenon arc solar simulator equipped with a UV reflecting dichromic mirror and a 1 mm thick Schott WG-320 (BES Optics Inc., W. Warwick, R.I.) filter to produce simulation of the solar spectrum. A 1 mm thick UG5 filter was added to remove reflected heat and remaining visible radiation.
The MED for each subject was determined by exposing a 1 cm diameter circle to untreated areas to a series of exposures in 25% dose increments from the solar simulator. The MED was defined as the time of exposure required to produce a minimally perceptible erythema 20±4 hours after exposure. Biopsies: Approximately ten minutes after the last topical application of the putative antioxidant, a circular area measuring 1 cm in diameter was exposed to a single dose of 1.5 MED using the solar simulator. Approximately 20 hours later, a shave biopsy (˜4×4 mm) was obtained from each irradiated and untreated control sites. Following injections of a local anesthetic (lidocaine). The skin specimens were immediately fixed in 10% buffered formalin.
The fixed specimens were processed routinely, embedded in paraffin and then sectioned and stained with hematoxylin-eosin. The numbers of sun burn cells (SBC) were determined in at least 12 sections at 50 u intervals. A minimum of 70 high power fields (HPF) was counted from each biopsy and the average number of SBCs per HPF determined. All specimens were counted in a blinded manner.
FIG. 3 expresses the photoprotective benefits of the antioxidants tested based on the percent change over baseline (delta percent) for the number of SBC per HPF.

[2] = Global relative antioxidant activity: total oxidative stress protective capacity score (sum of five tests); settings: sum of five equally weighted tests, maximum 100
Excerpt: Each oxidant was scored in each test, the results were then totaled for each antioxidant for each of the tests on an equal weighted basis. The total score of a particular antioxidant is reflective of the overall oxidative stress protective capacity of the antioxidant.
The five tests, which were equally weighted at 20 points each, allowed for the maximum highest possible score of 100 points. Using this scale, the higher score indicates higher oxidative stress protective capacity of the antioxidant. Equal weight was given to an antioxidant's performance in each study because each study tested the antioxidant's ability to protect against a unique different set of oxidative stress parameters.
A total oxidative stress protective capacity score for each antioxidant was determined by adding the results of the five tests for each antioxidant. Each of the five tests was assigned equal weight. That is, each antioxidant could receive a maximum of 20 points in each test so that each test contributed equally to the total score for each antioxidant.

[3] = Radical scavenging capacity measured by photochemilluminescence (Photochem system); assay type: biochemical; settings: for Photochemilluminescence score: 10 nmol/L=20, 100 nmol/L=15, 1000 nmol/L=10, >1000 nmol/L=5; for Effective Concentration (to eliminate radical formation): lowest effective concentration, base 10 serial dilution
Excerpt: Test 2: Radical Scavenging Capacity Measured by Photochemilluminescence
This test assessed the general antioxidative capacity of substances in their ability to scavenge free radicals via the measurement of radicals generated (or lack thereof) through their reaction with luminol and subsequent light emission.
The individual antioxidant capacity of the putative antioxidant substances was estimated by the Photochem® system (Analytik Jena AG, Jena, Germany, and Analytik Jena USA, Inc., Texas). The system combines the generation of radicals through photochemical excitation with highly sensitive luminometric detection via the radical reaction with luminol to produce measurable light emission. Samples are diluted with pre-made buffers (standardized kits) and applied to the device. The relative antioxidative capacity is determined by comparison to a standardized blank (without antioxidants) and a standard provided with the kit. The ACL-kit (Integral Antioxidative Capacity of lipid-soluble substances) and the ACW-kit ((Integral Antioxidative Capacity of water-soluble substances) were used.
Antioxidant concentrations effective to eliminate radical formulation were established for each antioxidant.

[4] = LDL pro-oxidative system (CuSO4) measuring primary oxidation by-products (lipid hydroperoxides); assay type: biochemical; settings: 100 μmol antioxidant; normalized to best performer = 20 points
Excerpt: Test 3: LDL Pro-Oxidative Systems Measuring Primary & By-Products
This test assessed the ability of the antioxidant to protect LDL stressed with Copper Sulfate (Cu—SO4) oxidative system. The CuSO4-LDL system was used to evaluate the protection of lipid bulks over time measuring the primary by-products of lipid peroxidation—the highly reactive and cytotoxic lipid hydroperoxides.
After isolation, LDLs were extensively dialyzed against a degassed and nitrogen-saturated Tris-Hydrochloric (HCl) buffer (5 mmol/L, pH7.4) containing 1 mmol/L EDTA. Before oxidation by CuSO4, EDTA was removed from LDL by dialysis against a Tris-HCl buffer (5 mmol/L, pH7.4) without added EDTA.
Lipid hydroperoxides were determined with the Cayman Lipid Peroxidation (LPO) Assay Kit (Cayman Chemical, Ann Arbor, Mich.) which measures the hydroperoxides directly utilizing the redox reactions with ferrous ions to produce ferric ions which can be detected using thiocyanate ion as the chromogen.

[5] = test system: Human primary foreskin keratinocytes; test: UVB irradiation of keratinocytes measuring DNA damage (nuclear thymine dimer staining); assay type: cell-based; parameters: Inhibition of photoproduct generation (protective effect): concentration or dose not given beside the values; settings: for Positive cells after UVB radiation (anti-thymine dimer antibody positive cells) / Inhibition of photoproduct generation (protective effect): 200 mJ/cm2 UVB; for Positive cells after UVB radiation (anti-thymine dimer antibody positive cells): positive cells above threshold in three fields, irradiated control 53%; for Inhibition of photoproduct generation (protective effect): relative to irradiated control; for UVB Irradiated Keratinocytes score: normalized to best performer = 20 points
Excerpt: Test 5: UVB Irradiation of Keratinocytes Measuring DNA Damage
This test assessed DNA damage in cell culture experiments under pro-oxidative conditions (UVB irradiation of human keratinocytes) by measuring the positive cells for anti-thymine dimer antibodies. This experiment is thought to reflect a direct correlation to the in vivo occurring DNA cross linking damage following UVB exposure and the protection of such nuclear damage by antioxidants.
Human primary foreskin keratinocytes (second passage) were grown in 6-well plates containing cover slips to 60% confluence in serum free medium (KGM, Clonetics) containing 0.07 mM CaCl2. Six hours before UVB-radiation medium was removed and replaced by fresh growth medium with or without the antioxidative substances.
Keratinocyte cultures were irradiated with a single dose of 200 mJ/cm2 UVB, using FS-20/T-12 bulbs (emission range: 280-340 nm; 305 nm max.). Immediately prior to irradiation, the medium was replaced with 1 ml sterile PBS (pH 7.4, 37° C.), and after irradiation, PBS was replaced with fresh growth medium. UVB exposure was quantitated using a Goldilux Ultraviolet radiometer. Cells were maintained at 37° C. (5% CO2) for 1 hour until fixation with paraformaldehyde (PFA).
Cells were fixed with 4% PFA in PBS for 30 min at RT, washed with PBS and permeabilized by incubation with EtOH/PBS (90/10; v %/v %) for 30 min at ˜10° C. After fixation and permeabilization cells were washed twice with PBS containing 1% of bovine serum albumin (BSA). They were then incubated for 30 min with 10 μg/ml anti-thymine Dimer Ab (clone KTM53; Kamiya) at RT. After the incubation period cells were washed twice with PBS-BSA and incubated for 30 min with 20 μg/ml secondary FITC-conjugated anti-mouse IgG at RT. After the incubation with the secondary antibody, cells were washed twice with PBS-BSA and fixed again with 4% PFA for 15 min at RT. Slides were analyzed by confocal microscopy.
This experiment is thought to reflect the in-vivo occurring DNA damage following UVB exposure and the protection of such nuclear damage by antioxidants.

SMILES	Secondary Oxidative Products score [1] [points]	reduction in SBCs (human skin) [%]	Sun Burn Cell Assay score (human skin) [points]	relative activity (efficacy) to the standard idebenone in sun burn cell assay (human skin; percentage reduction divided by that of idebenone) [%]	Total Points (Total Score) [2] [points]	Photochemilluminescence score [3] [points]	Effective Concentration (to eliminate radical formation) [3]	Primary Oxidative Products score [4] [points]	Positive cells after UVB radiation (anti-thymine dimer antibody positive cells) [5] [%]	Inhibition of photoproduct generation (protective effect) [5] [%]	UVB Irradiated Keratinocytes score [5] [points]
Cc1c(C)c2c(c(C)c1O)CCC(C)(CCCC(C)CCCC(C)CCCC(C)C)O2 (racemic) [Tocopherol, dl-alpha tocopherol]	17	31	16	82	80	20	10 nmol/L	10	35	34	17
O=C(O)CCCCC1CCSS1 (racemic) [lipoic acid, dl-alpha lipoic acid]	20		5		41	5	>1000 (not detectable) nmol/L	4	53	0	7
O=C1O[C@H]([C@@H](O)CO)C(O)=C1O [Ascorbic acid, 1-ascorbic acid]			0						34	36	17
COC1=C(OC)C(=O)C(CCCCCCCCCCO)=C(C)C1=O [Idebenone, 6-(10-hydroxydecyl)-2,3-dimethoxy-5-methyl-1,4-benzoquinone]	19	38	20		95	20	10 nmol/L	16	29	45	20
c1coc(CNc2ncnc3[nH]cnc23)c1 [Kinetin, kinetin]			11						34	36	17
COC1=C(OC)C(=O)C(C/C=C(\C)CC/C=C(\C)CC/C=C(\C)CC/C=C(\C)CC/C=C(\C)CC/C=C(\C)CC/C=C(\C)CC/C=C(\C)CC/C=C(\C)CCC=C(C)C)=C(C)C1=O [Ubiquinone, ubiquinone]	12		6		55	15	100 nmol/L	5	51	4	17
